Measurements reported in ChEMBL document CHEMBL1128039, “Acyl CoA:cholesterol acyltransferase (ACAT) inhibitors: ureas bearing two heterocyclic head groups” (Bioorg Med Chem Lett, 1995).

Test system: Cricetinae gen. sp.
Assay: In vivo activity, with an ED50 inlowering cholesterol levels in the cholesterol-fed hamster
Assay type: functional, Cricetulus griseus

With CCCCCCCN(CCCCCSc1nc(-c2ccccc2)c(-c2ccccc2)[nH]1)C(=O)Nc1ccc(F)cc1F [LECIMIBIDE] the ED50 was 3 mg/kg.
